Common to all, as to assay type: binding
Assay [1] has as its target T1, GDP-loaded K-Ras (1-169) G12D, C51S, C80L, C118S (Homo sapiens, UniProt P01116, C118S/C51S/C80L/G12D).
T1 construct: GDP-loaded K-Ras (1-169) G12D, C51S, C80L, C118S
The assay is described as follows: K-Ras G12D(GDP) cross-linking assay (conjugate formation, TOF mass spectrometry). Conditions: Table 4; percent covalently modified K-Ras by MS; room temperature; typical compound conc. 2, 10, 25 μM, endpoints 1 and 24 h. Further details: key: 0: No observed x-linking; +: 0 < x ≤ 20; ++: 20 < x ≤ 40; +++: 40 < x ≤ 100. Put shortly: (§1)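 5 μM protein (final, from 50 μM) in HEPES/NaCl/MgCl2 buffer pH 7.4 with compound typically at 2, 10 and 25 μM, room temperature, 1 and 24 h endpoints; formic acid quench. Intact-protein LC–TOF MS; percent modification is covalent adduct peak height over total K-Ras peak height.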

In a further assay the target is K-Ras G12S (Homo sapiens, UniProt P01116, G12S). Description: K-Ras G12S cross-linking assay (comparable procedure, conjugate formation, TOF mass spectrometry). Set-up: key: 0: No observed x-linking. Conditions: Table 4, percent covalently modified K-Ras by MS. The protocol: Protocol: K-Ras G12D(GDP) Cross-Linking Assay
Note: while the following protocol outlines the procedure for K-Ras G12D(GDP), a person of skill in the art may substitute other Ras proteins, and may also substitute a non-hydrolyzable GTP analog for GDP to study GTP bound Ras protein.
GDP-loaded K-Ras (1-169) G12D, C51S, C80L, C118S and GDP-loaded K-Ras (1-169) C51S, C80L, C118S were adjusted to 50 μM in K-Ras assay buffer (12.5 mM HEPES, 75 mM NaCl and 1 mM MgCl2 at pH 7.4). A 5 μL aliquot of each protein solution was added to each well of a 96-well microplate containing 40 μL of assay buffer. Initial compound stocks were prepared in DMSO at 100 times their final assay concentration. Compounds were then diluted 10-fold into K-Ras assay buffer to 10 times their final concentration. A 5 μL aliquot of each diluted compound solution was added to each protein solution in the 96-well microplate to initiate the reaction, which then proceeded at room temperature. Typical final compound concentrations were 2, 10, and 25 μM. At each time point, the reactions were analyzed immediately or quenched with 5 μL of a 5% formic acid solution and kept at 4° C. until analysis. Typical assay endpoints were 1 and 24 h.
Data collection took place on an Agilent 6230 TOF Mass Spectrometer. Complete reactions were injected onto a C4 reverse-phase column to separate protein from buffer components prior to entering the mass spectrometer. The proteins were eluted from the column by increasing acetonitrile fraction in the mobile phase and fed directly into the mass analyzer. Initial analysis of raw data took place in Agilent MassHunter BioConfirm software and consisted of deconvolution of multiple protein charge states with the maximum entropy algorithm, with a mass step of 1 Da. The heights of all deconvoluted protein masses were exported for further data analysis. The percent modification of each protein was then determined by calculating the peak height of the covalently modified K-Ras species as a percentage of the sum total of K-Ras protein peak height.

Assay [2] concerns the target T2, GDP-loaded K-Ras (1-169) C51S, C80L, C118S (Homo sapiens, UniProt P01116, C118S/C51S/C80L).
T2 construct: GDP-loaded K-Ras (1-169) C51S, C80L, C118S
The assay is described as follows: K-Ras WT (GDP) cross-linking assay (conjugate formation, TOF mass spectrometry). Further details: key: 0: No observed x-linking; +: 0 < x ≤ 20; ++: 20 < x ≤ 40; +++: 40 < x ≤ 100. Conditions: Table 4; percent covalently modified K-Ras by MS; room temperature; typical compound conc. 2, 10, 25 μM, endpoints 1 and 24 h. The gist of the method:
as §1

Regarding `O=C(NCCCl)NC1CCN(c2ncnc3c(F)c(-c4ccccc4F)c(Cl)cc23)CC1` [Example 10, 1-(1-(6-chloro-8-fluoro-7-(2-fluorophenyl)quinazolin-4-yl)piperidin-4-yl)-3-(2-chloroethyl)urea], the “G12D x-linking (%)” value in assay [1] is “+ (0 < x ≤ 20)”. In addition, at K-Ras G12S, the “G12S x-linking (%)” value was “+ (0 < x ≤ 10)”. Besides, the “WT x-linking (%)” value in assay [2] was “+ (0 < x ≤ 20)”.
Consider `O=C(NCCCl)NCCNc1ncnc2c(F)c(-c3ccccc3F)c(Cl)cc12` [Example 12, 1-(2-((6-chloro-8-fluoro-7-(2-fluorophenyl)quinazolin-4-yl)amino)ethyl)-3-(2-chloroethyl)urea], for which, in assay [1], the “G12D x-linking (%)” value was found to be 0. At K-Ras G12S, the “G12S x-linking (%)” value turned out to be 0. The “WT x-linking (%)” value in assay [2] is given as 0.
For the molecule `Fc1ccccc1-c1c(Cl)cc2c(N3CCC(NC4=NCCO4)CC3)ncnc2c1F` [Example 13, N-(1-(6-chloro-8-fluoro-7-(2-fluorophenyl)quinazolin-4-yl)piperidin-4-yl)-4,5-dihydrooxazol-2-amine], in assay [1], the “G12D x-linking (%)” value was “+ (0 < x ≤ 20)”. Also, the “G12S x-linking (%)” value on K-Ras G12S is listed as “+ (0 < x ≤ 10)”. The “WT x-linking (%)” value in assay [2] is “+ (0 < x ≤ 20)”.
As for `Fc1ccccc1-c1c(Cl)cc2c(N3CCN(C4=NCCO4)CC3)ncnc2c1F` [Example 14, 2-(4-(6-chloro-8-fluoro-7-(2-fluorophenyl)quinazolin-4-yl)piperazin-1-yl)-4,5-dihydrooxazole], the “G12D x-linking (%)” value in assay [1] is “+ (0 < x ≤ 20)”. Also, the “G12S x-linking (%)” value on K-Ras G12S is recorded as “+ (0 < x ≤ 10)”. In addition, the “WT x-linking (%)” value in assay [2] was “+ (0 < x ≤ 20)”.
In the case of `Fc1ccccc1-c1c(Cl)cc2c(NCCNC3=NCCO3)ncnc2c1F` [Example 15, N-(6-chloro-8-fluoro-7-(2-fluorophenyl)quinazolin-4-yl)-N^2-(4,5-dihydrooxazol-2-yl)ethane-1,2-diamine], in assay [1], the “G12D x-linking (%)” value was “+ (0 < x ≤ 20)”. The “G12S x-linking (%)” value on K-Ras G12S is “+ (0 < x ≤ 10)”. Also, the “WT x-linking (%)” value in assay [2] is recorded as “+ (0 < x ≤ 20)”.
Regarding `O=C(C1CN1)N1CCN(c2ncnc3c(F)c(-c4ccccc4F)c(Cl)cc23)CC1` (stereo not drawn) [Example 16, aziridin-2-yl(4-(6-chloro-8-fluoro-7-(2-fluorophenyl)quinazolin-4-yl)piperazin-1-yl)methanone], in assay [1], the “G12D x-linking (%)” value is “+ (0 < x ≤ 20)”. Further, the “G12S x-linking (%)” value on K-Ras G12S is “+ (0 < x ≤ 10)”. For the same molecule, the “WT x-linking (%)” value in assay [2] is recorded as “+ (0 < x ≤ 20)”.
As for `CC(=O)N1CC1C(=O)N1CCN(c2ncnc3c(F)c(-c4ccccc4F)c(Cl)cc23)CC1` (stereo not drawn) [Example 17, 1-(2-(4-(6-chloro-8-fluoro-7-(2-fluorophenyl)quinazolin-4-yl)piperazine-1-carbonyl)aziridin-1-yl)ethan-1-one], in assay [1], the “G12D x-linking (%)” value is recorded as “+ (0 < x ≤ 20)”. The “G12S x-linking (%)” value on K-Ras G12S is on record as “+ (0 < x ≤ 10)”. Moreover, the “WT x-linking (%)” value in assay [2] is reported as “+ (0 < x ≤ 20)”.
Take `O=C(C1CCN(c2ncnc3c(F)c(-c4ccccc4F)c(Cl)cc23)CC1)C(F)(F)F` [Example 18, 1-(1-(6-chloro-8-fluoro-7-(2-fluorophenyl)quinazolin-4-yl)piperidin-4-yl)-2,2,2-trifluoroethan-1-one]: the “G12D x-linking (%)” value in assay [1] is 0. The “G12S x-linking (%)” value at K-Ras G12S came out at 0. Besides, the “WT x-linking (%)” value in assay [2] turned out to be 0.
With `OB(O)C1CCN(c2ncnc3c(F)c(-c4ccccc4F)c(Cl)cc23)CC1` [Example 19, (1-(6-chloro-8-fluoro-7-(2-fluorophenyl)quinazolin-4-yl)piperidin-4-yl)boronic Acid], the “G12D x-linking (%)” value in assay [1] came to 0. The “G12S x-linking (%)” value on K-Ras G12S worked out at 0. Also, the “WT x-linking (%)” value in assay [2] worked out at 0.
On to `COCCN=C=NC1CCN(c2nc(OC[C@@H]3CCCN3C)nc3c2CCN(c2cccc4cccc(C)c24)C3)CC1` [Example 20, N-(2-methoxyethyl)-N-(1-(7-(8-methylnaphthalen-1-yl)-2-(((S)-1-methylpyrrolidin-2-yl)methoxy)-5,6,7,8-tetrahydropyrido[3,4-d]pyrimidin-4-yl)piperidin-4-yl)methanediimine], for which the “G12D x-linking (%)” value in assay [1] was “+++ (40 < x ≤ 100)”. On K-Ras G12S, the “G12S x-linking (%)” value is listed as “++ (10 < x ≤ 100)”. Besides, the “WT x-linking (%)” value in assay [2] is listed as “++ (20 < x ≤ 100)”.
As for `CN=C=NC1CCN(c2nc(OC[C@@H]3CCCN3C)nc3c2CCN(c2cccc4cccc(C)c24)C3)CC1` [Example 21, N-methyl-N-(1-(7-(8-methylnaphthalen-1-yl)-2-(((S)-1-methylpyrrolidin-2-yl)methoxy)-5,6,7,8-tetrahydropyrido[3,4-d]pyrimidin-4-yl)piperidin-4-yl)methanediimine], the “G12D x-linking (%)” value in assay [1] is given as “+++ (40 < x ≤ 100)”. The “G12S x-linking (%)” value on K-Ras G12S is reported as “++ (10 < x ≤ 100)”. Further, the “WT x-linking (%)” value in assay [2] is on record as “++ (20 < x ≤ 100)”.
For `CCCN=C=NC1CCN(c2nc(OC[C@@H]3CCCN3C)nc3c2CCN(c2cccc4cccc(C)c24)C3)CC1` [Example 22, N-(1-(7-(8-methylnaphthalen-1-yl)-2-(((S)-1-methylpyrrolidin-2-yl)methoxy)-5,6,7,8-tetrahydropyrido[3,4-d]pyrimidin-4-yl)piperidin-4-yl)-N-propylmethanediimine], the “G12D x-linking (%)” value in assay [1] is given as “+++ (40 < x ≤ 100)”. The “G12S x-linking (%)” value at K-Ras G12S is “++ (10 < x ≤ 100)”. Besides, in assay [2], the “WT x-linking (%)” value was “++ (20 < x ≤ 100)”.
As for `Cc1cccc2cccc(N3CCc4c(nc(OC[C@@H]5CCCN5C)nc4N4CCC(N=C=NC(C)C)CC4)C3)c12` [Example 23, N-isopropyl-N-(1-(7-(8-methylnaphthalen-1-yl)-2-(((S)-1-methylpyrrolidin-2-yl)methoxy)-5,6,7,8-tetrahydropyrido[3,4-d]pyrimidin-4-yl)piperidin-4-yl)methanediimine], the “G12D x-linking (%)” value in assay [1] is “++ (20 < x ≤ 40)”. Besides, the “G12S x-linking (%)” value on K-Ras G12S is on record as “++ (10 < x ≤ 100)”. Further, the “WT x-linking (%)” value in assay [2] is given as “+ (0 < x ≤ 20)”.
Regarding `Cc1cccc2cccc(N3CCc4c(nc(OC[C@@H]5CCCN5C)nc4N4CCC(N=C=NCc5ccccc5)CC4)C3)c12` [Example 24, N-benzyl-N-(1-(7-(8-methylnaphthalen-1-yl)-2-(((S)-1-methylpyrrolidin-2-yl)methoxy)-5,6,7,8-tetrahydropyrido[3,4-d]pyrimidin-4-yl)piperidin-4-yl)methanediimine], the “G12D x-linking (%)” value in assay [1] is “+ (0 < x ≤ 20)”. The “G12S x-linking (%)” value at K-Ras G12S is listed as “+ (0 < x ≤ 10)”. In addition, the “WT x-linking (%)” value in assay [2] is on record as “+ (0 < x ≤ 20)”.
Take `COCCCN=C=NC1CCN(c2nc(OC[C@@H]3CCCN3C)nc3c2CCN(c2cccc4cccc(C)c24)C3)CC1` [Example 25, N-(3-methoxypropyl)-N-(1-(7-(8-methylnaphthalen-1-yl)-2-(((S)-1-methylpyrrolidin-2-yl)methoxy)-5,6,7,8-tetrahydropyrido[3,4-d]pyrimidin-4-yl)piperidin-4-yl)methanediimine]: in assay [1], the “G12D x-linking (%)” value is recorded as “+++ (40 < x ≤ 100)”. Also, the “G12S x-linking (%)” value on K-Ras G12S is “++ (10 < x ≤ 100)”. Besides, the “WT x-linking (%)” value in assay [2] is “++ (20 < x ≤ 100)”.
With `CCCN=C=NCCN(C)c1nc(OC[C@@H]2CCCN2C)nc2c1CCN(c1cccc3cccc(C)c13)C2` [Example 26, N-methyl-7-(8-methylnaphthalen-1-yl)-2-(((S)-1-methylpyrrolidin-2-yl)methoxy)-N-(2-(((propylimino)methylene)amino)ethyl)-5,6,7,8-tetrahydropyrido[3,4-d]pyrimidin-4-amine], the “G12D x-linking (%)” value in assay [1] is given as “+++ (40 < x ≤ 100)”. In addition, the “G12S x-linking (%)” value on K-Ras G12S is “++ (10 < x ≤ 100)”. In addition, the “WT x-linking (%)” value in assay [2] is recorded as “++ (20 < x ≤ 100)”.
As for `Cc1cccc2cccc(N3CCc4c(nc(OC[C@@H]5CCCN5C)nc4N(C)CCN=C=NCc4ccccc4)C3)c12` [Example 27, N-(2-(((benzylimino)methylene)amino)ethyl)-N-methyl-7-(8-methylnaphthalen-1-yl)-2-(((S)-1-methylpyrrolidin-2-yl)methoxy)-5,6,7,8-tetrahydropyrido[3,4-d]pyrimidin-4-amine], the “G12D x-linking (%)” value in assay [1] is “++ (20 < x ≤ 40)”. Also, the “G12S x-linking (%)” value at K-Ras G12S is reported as “++ (10 < x ≤ 100)”. The “WT x-linking (%)” value in assay [2] is “+ (0 < x ≤ 20)”.

The values are drawn from patent publication US20230100838A1 (Revolution Medicines, Inc., priority 2019, published 2023).
